Laboratory results: ChEMBL document CHEMBL6121052, “Design of ROS-Triggered Sesquiterpene Lactone SC Prodrugs as TrxR1 Covalent Inhibitors for the Treatment of Non-Small Cell Lung Cancer” (J Med Chem, 2025)
The source made the active and inactive calls. The calls are words filed in the database; no cut-off is given here.

What was measured:
[1] = Tmax in male Sprague-Dawley rat at 10 mg/kg, iv measured upto 24 hrs by LC-MS/MS analysis; assay type: ADME, organism-based; conditions: in vivo
[2] = test system: NCI-H1299; assay: Induction of apoptosis in human NCI-H1299 cells assessed as late apoptotic cells at 2.5 uM measured after 48 hrs by Annexin V/FITC staining based flow cytometric analysis (reference value: 1.96%); assay type: functional
[3] = biological target: T1, Thioredoxin reductase 1, cytoplasmic (Homo sapiens) (UniProt Q16881); assay: Inhibition of TrxR1 in human A549 cells; assay type: cell-based; conditions: dose <= 10.0 µM
T1 sequence (whole entry): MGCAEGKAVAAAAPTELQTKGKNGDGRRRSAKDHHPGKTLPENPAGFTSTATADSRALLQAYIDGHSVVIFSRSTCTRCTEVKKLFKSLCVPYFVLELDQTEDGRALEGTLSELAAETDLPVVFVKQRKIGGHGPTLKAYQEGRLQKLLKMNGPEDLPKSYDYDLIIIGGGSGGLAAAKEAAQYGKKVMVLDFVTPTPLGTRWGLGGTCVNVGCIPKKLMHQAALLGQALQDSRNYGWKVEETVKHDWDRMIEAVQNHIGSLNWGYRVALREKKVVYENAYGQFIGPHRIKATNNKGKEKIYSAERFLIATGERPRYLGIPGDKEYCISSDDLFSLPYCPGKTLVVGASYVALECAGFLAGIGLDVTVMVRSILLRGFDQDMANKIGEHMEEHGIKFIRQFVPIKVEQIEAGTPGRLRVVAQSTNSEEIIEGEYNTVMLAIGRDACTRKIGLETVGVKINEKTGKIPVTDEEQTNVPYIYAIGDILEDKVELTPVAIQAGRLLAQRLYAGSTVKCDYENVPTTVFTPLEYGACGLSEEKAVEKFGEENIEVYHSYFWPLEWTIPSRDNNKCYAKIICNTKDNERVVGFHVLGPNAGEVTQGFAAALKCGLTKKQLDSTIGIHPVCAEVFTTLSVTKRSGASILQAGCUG

[4] = test system: A549; assay: Induction of apoptosis in human A549 cells assessed as increase in Bax expression at upto 10 uM incubated for 24 hrs by Western blot analysis; assay type: functional, cell-based
[5] = test system: NSCLC; assay: Downregulation of TrxR1 expression in human NSCLC cells; assay type: functional, cell-based
[6] = test system: A549; assay: Induction of apoptosis in human A549 cells assessed as necrotic cells at 2.5 uM measured after 48 hrs by Annexin V/FITC staining based flow cytometric analysis (reference value: 2.52 %); assay type: functional
[7] = AUC (0 to t) in male Sprague-Dawley rat at 10 mg/kg, iv measured upto 24 hrs by LC-MS/MS analysis; assay type: ADME, organism-based; conditions: in vivo
[8] = test system: A549; assay: Induction of intracellular ROS generation in human A549 cells upto 10 uM by DCFH-DA probe based fluorescence assay; assay type: functional, cell-based
[9] = test system: A549; assay: Induction of morphological changes in human A549 cells assessed as decrease in cell density upto 10 uM by AO/EB staining based analysis; assay type: functional
[10] = Toxicity in BALB/c mouse assessed as lung damage at 5 to 10 mg/kg, po administered every 2 days for 2 weeks by H and E staining based analysis; assay type: organism-based; conditions: in vivo, 336 h, dose 5-10 mg/kg
[11] = test system: A549; assay: Induction of morphological changes in human A549 cells assessed as increase in number of contracted shapes upto 10 uM; assay type: functional, cell-based
[12] = test system: NCI-H1299; assay: Induction of apoptosis in human NCI-H1299 cells assessed as necrotic cells at 10 uM measured after 48 hrs by Annexin V/FITC staining based flow cytometric analysis (reference value: 0.62%); assay type: functional
[13] = test system: A549; assay: Inhibition of colony formation in human A549 cells assessed as reduction in colony number at 4 uM incubated for 14 days by crystal violet staining based analysis; assay type: functional, cell-based; conditions: time 14.0 day
[14] = test system: A549; assay: Cytotoxicity against human A549 cells assessed as cell viability incubated for 48 hrs by MTT assay; assay type: functional, cell-based; conditions: A549, 48 h
[15] = test system: A549; assay: Downregulation of TrxR1 level in human A549 cells upto 10 uM incubated for 24 hrs by Western blot analysis; assay type: functional, cell-based
[16] = test system: A549; assay: Induction of apoptosis in human A549 cells assessed as early apoptotic cells at 5 uM measured after 48 hrs by Annexin V/FITC staining based flow cytometric analysis (reference value: 1.31 %); assay type: functional
[17] = test system: NCI-H1299; assay: Antitumor activity against human NCI-H1299 cells xenografted in po dosed BALB/c mouse assessed as reduction in tumor growth administered every 2 days for 2 weeks; assay type: functional, organism-based; conditions: dose 5-10 mg/kg

Tmax [1]: 1.98 min | inhibition [3]: Dose-dependent-effect | AUC(0-t) at 24 h [7]: 997 ng·h/mL
Compound: CCCNC(=O)O[C@@H]1/C=C(\C)C[C@H]2C=C(C[C@@H]3OC(=O)[C@H](CSC(=S)N(C)C)[C@H]31)C(=O)O2
Activity [2]: 7.41% | Activity [4]: Active | Activity [5]: Active | Activity [6]: 4.09% | Activity [8]: Active | Activity [9]: Active | Activity [10]: Non-toxic | Activity [11]: Active | Activity [12]: 1.01% | inhibition [13]: Active | IC50 [14]: 1.74 µM | Activity [15]: Active | Activity [16]: 2.47% | Activity [17]: Dose-dependent-effect
